“Also recorded” adds a separate entry of the source. Like-named read-outs stand apart in the source and are kept apart here. Each block holds one molecule with its values, some of them ahead of it. Non-standard residues stand in square brackets, D forms with d. Residues, ends and D or L forms follow the SMILES beside them.
Columns and labels:
PDZ2 domain of PSD-95 = PDZ2 domain of PSD-95 (Homo sapiens, UniProt P78352); assay: Direct ELISA of biotinylated peptides to PSD-95 PDZ2; format: binding
Procedure: ELISA plates were coated with 1 ug/ml PSD95PDZ2 in 50 mM bicarbonate buffer overnight at 4 C. The plate was blocked in 2%BSA in PBST (0.05%) for 2 h at room temperature. It was then incubated with biotinylated ligand (nerinetide, D-tat-L2B9c or D-Tat-L-AA) at the indicated concentrations (FIG. 4A) and incubated overnight at 4 C. After washing with PBS-T, the plate was incubated for 30 min with (1:3000) SA-HRP, washed again, and incubated with TMB solution for 10 min. The reaction was stopped with 100 ul H2504. Absorbance was determined at 450 nm with the synergy H1 reader.

plasmin = plasmin (Homo sapiens, UniProt P00747)
Procedure: (A) LC/MS spectrum of nerinetide after incubation with plasmin in PBS. 10 uL aliquots of nerinetide (18 mg/mL) and plasmin (1 mg/mL) were incubated in 500 uL tubes of phosphate-buffered saline at 37 C for 5 min and the reaction stopped by cooling to −80 C until tested. […] (B, C) In-vitro effect of rt-PA on nerinetide content in rat (B) and human (C) plasma. Nerinetide was spiked into the plasma samples at t=0 at a concentration of 65 ug/ml, whereas alteplase (rt-PA) was administered as a 60 min infusion at the indicated concentration (D, E) In-vivo effect of the simultaneous administration of nerinetide and rt-PA on Cmax (D) and AUC (E) in the rat. The nerinetide bolus and alteplase (60 min infusion) were started simultaneously through two separate intravenous lines. Symbols represent mean±SD. […] […] (SEQ ID NO:3) (Full-length NA-1, undigested), […] […] (SEQ ID NO:8), […] […] (SEQ ID NO:10).
Direct ELISA of the indicated biotinylated peptides to the PDZ2 domain of PSD-95. […] Symbols indicate the mean±SD of triplicate experiments. […] (B). […] E,F. Time course of nerinetide or D-TAT-L-2B9c content in rat plasma (E) and human plasma (F) during a challenge with tenecteplase (TNK; 37.5 ug/ml or 6.25 ug/ml, respectively). […] (repeated measures two-way ANOVA with a post hoc Sidak's multiple comparisons test, *P<0.01). Symbols are means±SD. […]

[1] = In-vivo pharmacokinetic analysis in rats; conditions: rat, intravenous bolus 7.6 mg/kg
Procedure: Since the effect of nerinetide in the ESCAPE-NA1 trial was negated by alteplase, we next evaluated the effects of alteplase on pharmacokinetics (PK) of nerinetide in rats. Alteplase was administered at 0.9 mg/kg (human dose) and at 5.4 mg/kg (6 times the human dose) in an infusion that simulated the clinical protocol (10% bolus followed by a 60 min infusion of the remainder). Nerinetide was administered as an intravenous bolus at the start of the alteplase infusion at 7.6 mg/kg.
The goal of these study was to evaluate nerinetide PK parameter changes when in the presence of circulating rt-PA and plasmin. Male naïve rats received an intravenous administration of either nerinetide alone, nerinetide plus rt-PA (0.9 mg/kg) or nerinetide plus rt-PA (5.4 mg/kg). Sample collection was performed pre-dose and 0 min, 5 min, 10 min, 20 min, 50 min post-dose. At each time point, approximately 300 uL of blood was sampled from each animal using a fresh syringe. Blood samples were collected in previously prepared Eppendorf tubes [30 ul of EDTA 2.5%] and centrifuged for 20 minutes to separate plasma and cell components.
Plasma samples were stored at −80° C. until analyzed.
Changes in peptide concentration were analyzed using a two-way repeated measures ANOVA, followed by the Sidak correction for multiple comparisons. The pharmacokinetic (PK) parameters of peak plasma concentration (Cmax) and the area under the plasma concentration-time curve from 0 to last measured concentration (AUC) were obtained with PKsolver Software (USA) using a non-compartmental analysis and employing a linear interpolation. For stroke studies, differences between groups were tested using a One-way ANOVA with a Tukey's correction for multiple comparisons. […] Values for animals experiencing premature death due to any reason including subarachnoid hemorrhage or hemorrhagic transformation were imputed to reflect the worst neurological score and the maximum stroke volume achieved across all animals.

[2] = test system: embolic middle cerebral artery occlusion (eMCAO); assay: Rat embolic middle cerebral artery occlusion model with alteplase reperfusion; format: in vivo, Sprague-Dawley rats
Procedure: To test this, male Sprague-Dawley rats (10-12 weeks old; 270-310 g; Charles River, Montreal, QC, Canada) were subjected to embolic middle cerebral artery occlusion (eMCAO), produced by the introduction of an autologous blood thrombus into the middle cerebral artery. Reperfusion was achieved by treatment with intravenous alteplase at a total dose of 5.4 mg/kg beginning at 90 minutes after ischemia onset. Alteplase was administered using the human injection protocol in which 10% of the total dose is given as a bolus, with the remainder 90% of the dose being given over a 60-minute infusion. […] This dose was chosen because in pilot studies, higher doses of alteplase (10× human dose) produced unacceptable mortality rates due to hemorrhagic conversions of strokes. Nerinetide was administered either 30 minutes prior to, or concurrently with, the start of the alteplase administration (FIG. 5A) at a dose of 7.6 mg/kg. […] Infarct volumes, hemispheric swelling and neurological scores were evaluated at 24 hours.
Male Sprague-Dawley rats were subjected to eMCAO as already described. Nerinetide (7.6 mg/kg) or D-Tat-L-2B9c (7.6 mg/kg) were given as bolus injections at 60 minutes. Alteplase (5.4 mg/kg over 60 min) was also started at 60 min after eMCAO, concurrently with the active agent that inhibits PSD-95. Neurological scoring, infarct volume, and hemispheric swelling were assessed at 24 hours (FIG. 8A).
The studies were designed to have 80% power to detect a 40% absolute difference between control and treatment groups at p=0.05. Animal randomization, drug allocation and treatment drug preparation were performed by a research associate not directly involved with surgical or outcome assessment. Nerinetide and D-Tat-L-2B9c were freshly prepared at a concentration of 7.6 mg/mL in 500 uL aliquots. Alteplase was prepared from lyophilized drug and, like matching placebo, stored in identical glass tubes. Drugs were kept at 4° C. until 10 minutes prior to use. The surgeon and the investigators responsible for the surgery, stroke volume measurement, behavioural assessment and statistical analysis were blinded to treatment allocation.

[3] = test system: transient middle cerebral artery occlusion (tMCAO); assay: Rat transient middle cerebral artery occlusion model; conditions: rat tMCAO, comparison of the two peptides
Procedure: Nerinetide and lodoxamide was administered to rats intravenously as a bolus injection, 60 minutes after tMCAo. […] Bars in A and represent mean±SD, with all individual data points plotted. Asterisks in A indicate P<0.01 when compared to the vehicle group (one-way ANOVA post hoc Tukey's correction for multiple comparisons test) N=12-14 animals/group. […] Significant differences are indicated with an asterisk when compared to the vehicle group (Kruskal-Wallis analysis of variance on ranks with a post-hoc Dunn's correction for multiple comparisons test, *P<0.01). Vehicle: PBS alone. Scrambled: ADA peptide incapable of binding PSD-95.
All animals subjected to surgery had their physiological parameters measured prior to MCA occlusion. PE-50 polyethylene tubing was inserted into the right femoral artery for invasive monitoring of mean arterial blood pressure and for obtaining blood samples to measure blood gases (pH, PaO2, and PaCO2), electrolytes (Na^+, K^+, iCa) and plasma glucose at baseline [Blood gas cartridge CG8+, VetScan i-STAT 1 Analyzer].
Infarct volumes and hemispheric swelling were evaluated at 24 hours post-stroke from standard brain slices stained with 2% 2,3,5-triphenyltetrazolium chloride (Sigma Aldrich, St. Louis, Md., USA)(7). Neurologic scoring was conducted at 24 hours after stroke onset using forelimb-placing tests comprising of frontal visual placing, sideways visual placing, frontal tactile placing, sideways tactile placing, and vertical tactile placing (scores range from 0-2 in each component for a maximum of 12 indicating maximum impairment.

[4] = rat plasma in the absence of alteplase; conditions: Rat Sprague Dawley, 37° C., up to 45 min
[5] = human plasma in the absence of alteplase; conditions: 37° C., up to 45 min
plasmin (1 mg/mL) = assay: plasmin in PBS (phosphate-buffered saline); conditions: 37 C, up to 5 min
[6] = test system: rt-PA (alteplase) (135 ug/ml); assay: PBS during a challenge with rt-PA (135 ug/ml); conditions: 37° C.
plasmin (10 ug/mL) = assay: PBS during a challenge with plasmin (10 ug/mL); conditions: 37° C.
[7] = test system: rt-PA (alteplase) 135 ug/ml; assay: rat plasma during a challenge with rt-PA (135 ug/ml); conditions: Rat Sprague Dawley, 37° C., up to 45 min
[8] = test system: rt-PA (alteplase) 135 ug/ml; assay: human plasma during a challenge with rt-PA (135 ug/ml); conditions: 37° C., up to 45 min
[9] = test system: tenecteplase (TNK) 37.5 ug/ml; assay: rat plasma during a challenge with tenecteplase (TNK; 37.5 ug/ml); conditions: Rat Sprague Dawley
[10] = test system: tenecteplase (TNK) 6.25 ug/ml; assay: human plasma during a challenge with tenecteplase (TNK; 6.25 ug/ml)
[11] = cited from earlier work

PDZ2 domain of PSD-95, sequence (P78352 160-246 limits assumed): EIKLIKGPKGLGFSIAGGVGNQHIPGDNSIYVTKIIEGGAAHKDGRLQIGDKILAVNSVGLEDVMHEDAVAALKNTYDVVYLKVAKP

Molecule: CC[C@H](C)[C@H](NC(=O)[C@H](CO)NC(=O)[C@H](CO)NC(=O)[C@H](CC(C)C)NC(=O)[C@H](CCCCN)NC(=O)[C@@H](CCCNC(=N)N)NC(=O)[C@@H](CCCNC(=N)N)NC(=O)[C@@H](CCCNC(=N)N)NC(=O)[C@@H](CCC(N)=O)NC(=O)[C@@H](CCCNC(=N)N)NC(=O)[C@@H](CCCNC(=N)N)NC(=O)[C@@H](CCCCN)NC(=O)[C@@H](CCCCN)NC(=O)[C@@H](CCCNC(=N)N)NC(=O)CNC(=O)[C@H](N)Cc1ccc(O)cc1)C(=O)N[C@@H](CCC(=O)O)C(=O)N[C@@H](CO)C(=O)N[C@@H](CC(=O)O)C(=O)N[C@H](C(=O)O)C(C)C [D-Tat-L-2B9c, ygrkkrrqrrrKLSSIESDV SEQ ID NO:89] (H-[dY]G[dR][dK][dK][dR][dR][dQ][dR][dR][dR]KLSSIESDV-OH; C-terminus assumed)
- EC50 (PDZ2 domain of PSD-95): 151 nM
- binding to PDZ2 domain of PSD95 in ELISA (PDZ2 domain of PSD-95): substantially similar binding as nerinetide
- stability alone in phosphate buffered saline (plasmin): stable
- pharmacokinetic profile compared with nerinetide [1]: higher cmax and AUC
- infarct volumes, hemispheric swelling and neurological scores ([2]; 7.6 mg/kg at 60 minutes after eMCAO, 24 hours): beneficial effect of D-Tat-L-2B9c was evident
- effect on infarction volume in the absence of alteplase ([2]; 7.6 mg/kg bolus at 60 minutes after eMCAO): as effective as nerinetide alone
- effect on infarction volume when given concurrently with alteplase ([2]; peptide 7.6 mg/kg and alteplase 5.4 mg/kg both at 60 min after eMCAO): this effect persisted
- reducing infarction volume, hemispheric swelling and improving neurological scores [3]: equally effective

- not cleaved [4]: stable
- not cleaved [5]: stable
- fragment found (plasmin (1 mg/mL)): RKLSSIESDV (SEQ ID NO:8), 5 min
Molecule: YGRKKRRQRRRKLSSIESDV
- cleaved bond (plasmin (1 mg/mL)): K5-R, 5 min; also recorded: R6-R, 5 min; also recorded: R7-Q, 5 min; also recorded: R9-R, 5 min; also recorded: R11-K, 5 min; also recorded: K12-L, 5 min
- not cleaved [6]: not affected by co-incubation with alteplase

- not cleaved [4]: stable
- not cleaved [5]: stable
- not cleaved (plasmin (10 ug/mL)): no significant degradation
- not cleaved [9]: no rapid elimination on addition of TNK
- not cleaved [10]: no rapid elimination on addition of TNK
Molecule: ygrkkrrqrrrKLSSIESDV
- not cleaved [6]: not affected by co-incubation with alteplase
- not cleaved [7]: no rapid degradation on addition of alteplase
- not cleaved [8]: no rapid degradation on addition of alteplase

Molecule: alteplase: a recombinant form of tPA; thrombolytic agent [reference compound]
- reduction of infarction volume ([2]; alteplase alone 5.4 mg/kg given at 60 min after eMCAO): 26%
- reduction of infarction volume ([2]; alteplase alone 5.4 mg/kg given at 90 minutes after eMCAO): 18%
- half-life in human plasma ([11]; in vivo): about five

B1: Plasmin: serine protease generated from circulating plasminogen by tissue-plasminogen activators (protein, UniProt P00747 20-580; P00747 581-810, looked up)
Plasmin heavy chain A: EPLDDYVNTQGASLFSVTKKQLGAGSIEECAAKCEEDEEFTCRAFQYHSKEQQCVIMAENRKSSIIIRMRDVVLFEKKVYLSECKTGNGKNYRGTMSKTKNGITCQKWSSTSPHRPRFSPATHPSEGLEENYCRNPDNDPQGPWCYTTDPEKRYDYCDILECEEECMHCSGENYDGKISKTMSGLECQAWDSQSPHAHGYIPSKFPNKNLKKNYCRNPDRELRPWCFTTDPNKRWELCDIPRCTTPPPSSGPTYQCLKGTGENYRGNVAVTVSGHTCQHWSAQTPHTHNRTPENFPCKNLDENYCRNPDGKRAPWCHTTNSQVRWEYCKIPSCDSSPVSTEQLAPTAPPELTPVVQDCYHGDGQSYRGTSSTTTTGKKCQSWSSMTPHRHQKTPENYPNAGLTMNYCRNPDADKGPWCFTTDPSVRWEYCNLKKCSGTEASVVAPPPVVLLPDVETPSEEDCMFGNGKGYRGKRATTVTGTPCQDWAAQEPHRHSIFTPETNPRAGLEKNYCRNPDGDVGGPWCYTTNPRKLYDYCDVPQCAAPSFDCGKPQVEPKKCPGR
Plasmin light chain B: VVGGCVAHPHSWPWQVSLRTRFGMHFCGGTLISPEWVLTAAHCLEKSPRPSSYKVILGAHQEVNLEPHVQEIEVSRLFLEPTRKDIALLKLSSPAVITDKVIPACLPSPNYVVADRTECFITGWGETQGTFGAGLLKEAQLPVIENKVCNRYEFLNGRVQSTELCAGHLAGGTDSCQGDSGGPLVCFEKDKYILQGVTSWGLGCARPNKPGVYVRVSRFVTWIEGVMRNN
modifications: plasmin
- half-life in human plasma ([11]; reported): 4 to 8 h
